The compounds below were run against T1, MAGL (Homo sapiens, UniProt Q99685) (assay: 2-AG assay (MAGL inhibitory activity, hydrolysis of 2-arachidonoylglycerol followed by mass spectrometry)). Conditions: 50 pM MAGL, 8 μM 2-arachidonoylglycerol, 15 min preincubation, 30 min incubation at RT, concentration range 12.5 μM to 0.8 pM.
T1 sequence (Q99685 1-303): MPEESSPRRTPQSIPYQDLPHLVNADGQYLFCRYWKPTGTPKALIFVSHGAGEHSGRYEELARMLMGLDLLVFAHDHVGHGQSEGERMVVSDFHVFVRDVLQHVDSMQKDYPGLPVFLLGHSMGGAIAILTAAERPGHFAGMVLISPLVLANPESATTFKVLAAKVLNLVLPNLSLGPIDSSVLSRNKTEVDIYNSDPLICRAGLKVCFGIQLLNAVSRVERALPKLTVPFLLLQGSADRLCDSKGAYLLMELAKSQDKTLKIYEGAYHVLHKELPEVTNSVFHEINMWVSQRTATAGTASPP
Assay type: biochemical
Procedure, shortened: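 Activity derived from the arachidonic acid/d8-arachidonic acid MS intensity ratio after acetonitrile quench. Reaction: 8 μM 2-AG substrate with 50 pM MAGL, 30 min at RT, following 15 min RT compound preincubation; buffer 50 mM TRIS, 1 mM EDTA, 0.01% Tween; final compound range 12.5 μM to 0.8 pM.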

IC50 [nM] | Structure (SMILES)
84 | O=C1NC(CCC(=O)N2CC3(CCC(Cc4ccc(C(F)(F)F)nc4)C3)C2)CO1 (single isomer, unassigned) [Example 211, (+)- or (−)-(4R)-4-[3-Oxo-3-[6-[[6-(trifluoromethyl)-3-pyridyl]methyl]-2-azaspiro[3.4]octan-2-yl]propyl]oxazolidin-2-one]
598 | O=C(CCc1cccc(=O)[nH]1)N1CC(OCc2ccc(C(F)(F)F)cc2F)C1 [Example 48, 6-[3-[3-[[2-Fluoro-4-(trifluoromethyl)phenyl]methoxy]azetidin-1-yl]-3-oxo-propyl]-1H-pyridin-2-one]
39 | O=C1N[C@H](CCC(=O)N2CC(c3cccc(C4(C(F)(F)F)CC4)c3)C2)CO1 [Example 109, (4R)-4-[3-Oxo-3-[3-[3-[1-(trifluoromethyl)cyclopropyl]phenyl]azetidin-1-yl]propyl]oxazolidin-2-one]
12 | CS(=O)(=O)c1cc(Cl)ncc1-c1ccc(C2CN(C(=O)CC[C@@H]3COC(=O)N3)C2)cc1 [Example 118, (4R)-4-[3-[3-[4-(6-Chloro-4-methylsulfonyl-3-pyridyl)phenyl]azetidin-1-yl]-3-oxo-propyl] oxazolidin-2-one]
45 | O=C1N[C@H](CCC(=O)N2CC(c3ccc(N4CCC5(C4)CC5(F)F)nc3)C2)CO1 (stereo partly drawn) [Example 173, (4R)-4-[3-[3-[6-(2,2-Difluoro-5-azaspiro[2.4]heptan-5-yl)-3-pyridyl]azetidin-1-yl]-3-oxo-propyl]oxazolidin-2-one]
95 | O=C1N[C@H](CCC(=O)N2CC3(CC(NS(=O)(=O)c4cccc(C(F)(F)F)c4)C3)C2)CO1 [Example 154, N-[2-[3-[(4R)-2-Oxooxazolidin-4-yl]propanoyl]-2-azaspiro[3.3]heptan-6-yl]-3-(trifluoromethyl) benzene-sulfonamide]
13 | O=C1N[C@H](CCC(=O)N2CC(c3ccc(N4CC5(CCCC5)C4)nc3)C2)CO1 [Example 142, (4R)-4-[3-[3-[6-(2-Azaspiro[3.4]octan-2-yl)-3-pyridyl]azetidin-1-yl]-3-oxo-propyl]oxazolidin-2-one]
2310 | O=C1CCC(CCC(=O)N2C[C@@H]3CN(Cc4ccc(C(F)(F)F)cc4F)C[C@H]3C2)N1 (single isomer, unassigned; (+)) [Example 12]
13 | CN(CCc1cnn[nH]1)C(=O)N1CC(OCc2ccc(C(F)(F)F)cc2F)C1 [Example 66, 3-[[2-Fluoro-4-(trifluoromethyl)phenyl]methoxy]-N-methyl-N-[2-(1H-triazol-5-yl)ethyl]azetidine-1-carboxamide]
33 | O=C1N[C@@H](COC(=O)N2CC(OCc3ccc(C(F)(F)F)cc3F)C2)CO1 [Example 55, [(4R)-2-Oxooxazolidin-4-yl]methyl 3-[[2-fluoro-4-(trifluoromethyl)phenyl]methoxy] azetidine-1-carboxylate]
605 | O=C1CCCC(CCC(=O)N2CC(OCc3ccc(C(F)(F)F)cc3F)C2)N1 (centres unmarked) [Example 49, 6-[3-[3-[[2-Fluoro-4-(trifluoromethyl)phenyl]methoxy]azetidin-1-yl]-3-oxo-propyl]piperidin-2-one]
218 | O=C(CCCc1cnn[nH]1)N1CC(c2ccc(Oc3ccc(OC(F)(F)F)cc3)nc2)C1 [Example 42, 4-(1H-Triazol-5-yl)-1-[3-[6-[4-(trifluoro-methoxy)phenoxy]-3-pyridyl]azetidin-1-yl]butan-1-one]
2 | O=C1N[C@@H](COC(=O)N2CC3(CC(Cc4ccc(F)cc4F)C3)C2)CO1 [Example 59, [(4R)-2-Oxooxazolidin-4-yl]methyl 6-[(2,4-difluorophenyl)methyl]-2-azaspiro[3.3]heptane-2-carboxylate]
≥ 12500 | O=C1CCC(CCC(=O)N2C[C@@H]3CN(Cc4ccc(C(F)(F)F)cc4F)C[C@H]3C2)N1 (single isomer, unassigned; (-)) [Example 11]
131 | O=C1NC(CCC(=O)N2CC(c3cnc(N4CCC(C(F)(F)F)C4)nc3)C2)CO1 (single isomer, unassigned) [Example 209, (+)- or (−)-(4R)-4-[3-Oxo-3-[3-[2-[3-(trifluoromethyl)pyrrolidin-1-yl]pyrimidin-5-yl]azetidin-1-yl]propyl]oxazolidin-2-one]
24 | CC(C)(C)Cc1nnc(C23CC(C4CN(C(=O)CC[C@@H]5COC(=O)N5)C4)(C2)C3)o1 [Example 165, (4R)-4-[3-[3-[3-[5-(2,2-Dimethyl-propyl)-1,3,4-oxadiazol-2-yl]-1-bicyclo[1.1.1]pentanyl]azetidin-1-yl]-3-oxo-propyl] oxazolidin-2-one]

IC50 [nM] | Structure (SMILES)
12 | O=C1N[C@H](CCC(=O)N2CC(c3cnc(C4CC5(CCC5)C4)cn3)C2)CO1 [Example 164, (4R)-4-[3-Oxo-3-[3-(5-spiro[3.3]heptan-2-ylpyrazin-2-yl)azetidin-1-yl]propyl] oxazolidin-2-one]
59 | CC(CCc1cnn[nH]1)C(=O)N1CC(c2ccc(C3(C(F)(F)F)CC3)cc2)C1 (centres unmarked) [Example 68, 2-Methyl-4-(1H-triazol-5-yl)-1-[3-[4-[1-(trifluoromethyl)cyclopropyl]phenyl]azetidin-1-yl]butan-1-one]
0.5 | O=C1N[C@H](CCC(=O)N2CC3(CC(Cc4ccc(F)cc4F)C3)C2)CO1 [Example 27, (4R)-4-[3-[6-[(2,4-Difluorophenyl)methyl]-2-azaspiro[3.3]heptan-2-yl]-3-oxo-propyl]oxazolidin-2-one]
350 | O=C1N[C@H](CCC(=O)N2CC3(C2)CN(S(=O)(=O)c2ccc(F)cc2C(F)(F)F)C3)CO1 [Example 97, (4R)-4-[3-[2-[4-Fluoro-2-(trifluoromethyl)phenyl]sulfonyl-2,6-diazaspiro[3.3]heptan-6-yl]-3-oxo-propyl] oxazolidin-2-one]
123 | O=C1N[C@H](CCC(=O)N2CC(c3cnc(N4CC5(C4)CC(F)(F)C5)cn3)C2)CO1 [Example 139, (4R)-4-[3-[3-[5-(6,6-Difluoro-2-azaspiro[3.3]heptan-2-yl)pyrazin-2-yl]azetidin-1-yl]-3-oxo-propyl]oxazolidin-2-one]
582 | O=C1N[C@H](CCC(=O)N2CCC(CNS(=O)(=O)c3ccc(C(F)(F)F)cc3)CC2)CO1 [Example 158, N-[[1-[3-[(4R)-2-Oxooxazolidin-4-yl]propanoyl]-4-piperidyl]methyl]-4-(trifluoro-methyl)benzene-sulfonamide]
19 | O=C1CCC(CCC(=O)N2CC(OCc3ccc(C(F)(F)F)cc3F)C2)N1 (single isomer, unassigned; (+)) [Example 2, (+)-5-[3-[3-[[2-Fluoro-4-(trifluoromethyl)phenyl]methoxy]azetidin-1-yl]-3-oxo-propyl]pyrrolidin-2-one]
498 | O=C1N[C@H](CCC(=O)N2CC3(C2)CN(S(=O)(=O)c2ccccc2OC(F)(F)F)C3)CO1 [Example 148, (4R)-4-[3-Oxo-3-[2-[2-(trifluoro-methoxy)phenyl]sulfonyl-2,6-diazaspiro[3.3]heptan-6-yl]propyl]oxazolidin-2-one]
37 | O=C1N[C@H](CCC(=O)N2CC(c3ccc([C@H]4C[C@@H](C(F)(F)F)C4)nc3)C2)CO1 [Example 202, Cis-(4R)-4-[3-Oxo-3-[3-[6-[3-(trifluoromethyl)cyclobutyl]-3-pyridyl]azetidin-1-yl]propyl]oxazolidin-2-one]
98 | O=C1N[C@H](CCC(=O)N2CC(c3ccc(N4CCC(O)(C(F)(F)F)C4)nc3)C2)CO1 (single isomer, unassigned) [Example 204, (−)- or (+)-(4R)-4-[3-[3-[6-[3-Hydroxy-3-(trifluoromethyl)pyrrolidin-1-yl]-3-pyridyl]azetidin-1-yl]-3-oxo-propyl]oxazolidin-2-one]
7 | CC(C)(C)Cn1nncc1-c1ccc(C2CN(C(=O)CC[C@@H]3COC(=O)N3)C2)cc1 [Example 81, (4R)-4-[3-[3-[4-[3-(2,2-Dimethyl-propyl)triazol-4-yl]phenyl]azetidin-1-yl]-3-oxo-propyl]oxazolidin-2-one]
27 | CN(CCc1cnn[nH]1)C(=O)N1CC(c2ccc(-c3ccc(S(C)(=O)=O)cc3Cl)cc2)C1 [Example 67, 3-[4-(2-Chloro-4-methylsulfonyl-phenyl)phenyl]-N-methyl-N-[2-(1H-triazol-5-yl)ethyl]azetidine-1-carboxamide]
157 | O=C1NCC(CCC(=O)N2CC(c3ccc(C4(C(F)(F)F)CC4)cc3)C2)N1 (centres unmarked) [Example 214, 4-[3-Oxo-3-[3-[4-[1-(trifluoromethyl)cyclopropyl]phenyl]azetidin-1-yl]propyl]imidazolidin-2-one]
25 | CS(=O)(=O)c1cc(Cl)ccc1-c1ccc(C2CN(C(=O)NCC3COC(=O)N3)C2)cc1 (centres unmarked) [Example 212, 3-[4-(4-Chloro-2-methylsulfonyl-phenyl)phenyl]-N-[(2-oxooxazolidin-4-yl)methyl]azetidine-1-carboxamide]
5 | O=C1N[C@H](CCC(=O)N2CC(c3ccc(N4CC(OCC(F)(F)F)C4)cc3)C2)CO1 [Example 99, (4R)-4-[3-Oxo-3-[3-[4-[3-(2,2,2-trifluoro-ethoxy)azetidin-1-yl]phenyl]azetidin-1-yl]propyl] oxazolidin-2-one]
33 | O=C1N[C@H](COC(=O)N2CC(c3ccc(Oc4ccccc4Cl)nc3)C2)CO1 [Example 60, [(4S)-2-Oxooxazolidin-4-yl]methyl 3-[6-(2-chlorophenoxy)-3-pyridyl]azetidine-1-carboxylate]

From patent US11981661B2, “Heterocyclic compounds” (Hoffmann-La Roche Inc., priority 2020, dated 2024)
